Measured values taken from US5608095A, “Alkyl-4-silyl-phenols and esters thereof as antiatherosclerotic agents” (Hoechst Marion Roussel, Inc., priority 1996, dated 1997).
Where two headings read alike, the source gives them in different places.

Key:
[1] = system: VCAM-1; assay: Cell surface ELISA for VCAM-1 in human aortic smooth muscle cells (HASMC), interleukin-4 induced; type: cell-based; conditions: 50 μm; for VCAM-1 (Avg.) % inh.: average of HSMC-1 to HSMC-3; for HSMC-1 % inh. of VCAM-1: experiment HSMC-1, interleukin-4, about 20 hr; for HSMC-2 % inh. of VCAM-1: experiment HSMC-2, interleukin-4, about 20 hr; for HSMC-3 % inh. of VCAM-1: experiment HSMC-3, interleukin-4, about 20 hr
Description: (§1) Cell Surface ELISA for VCAM-1/ICAM-1
(§2) Proliferating human umbilical vein endothelial cells (HUVEC) or human aortic smooth muscle cells (HASMC) from Clonetics (San Diego, Calif.) were plated onto 96-well plates in 100 μL medium per well at 20,000 cells per cm^2. The cultures were maintained in growth medium (EGM or SMGM2, Clonetics, San Diego, Calif.) for two days prior to addition of cytokines or drugs. Cytokines plus or minus compounds were added for 20 to 24 hours prior to analysis for adhesion molecule levels. Tumor necrosis factor (Genzyme, Cambridge, Mass.) was added to cultures at 500-1000 units/mL. Interleukin-4 (GIBCO-BRL, Gaithersburg, Md.) was added to cultures at 100-200 pg/mL. (Additions were made by transferring 100 [μL of cytokines plus compounds serially diluted on a separate 96-well plate into the plates containing cells. The medium on the cultures was not exchanged prior to addition of effectors). The culture medium was removed, and the monolayers were washed twice with Hanks buffered saline solution (HBSS) at room temperature. The primary antibody (anti-human VCAM-1 from Upstate Biotechnology, Inc., Lake Placid, N.Y. or anti-human ICAM-1 from Immunotech, Inc., Westbrook, Me.) was added to each well (1 μg/mL in HBSS plus 5% newborn calf serum, GIBCO-BRL, Gaithersburg, Md.) and incubated at 37° C. for 1 hr. The wells were washed twice with HBSS, then 100 μL of a 1/1000 dilution of goat anti-mouse IgG conjugated to horse radish peroxidase (BioRad, Hercules, Calif.) in HBSS plus 5% newborn calf serum was added to each well and incubated for 1 hr at 37° C. The wells were washed three times with HBSS, then 100 μL of TMB substrate (BioRad, Hercules, Calif.) was added to each well. The reaction was stopped after blue color developed by addition of 50 μL of 1N H2 SO4. Absorbance is measured at 450 nm with a plate reader. IC50 values were determined from curves of absorbance values obtained from serial dilutions of compounds (dissolved in dimethyl sulfoxide).
(§3) The IC50 value is defined as the drug concentration that inhibits the cytokine-induced adhesion molecule expression by 50%. Maximal values for adhesion molecule expression in cytokine-induced cultures was […] the basal level of adhesion molecule expression (minus cytokines) in the cultures to determine the level of induction. […] Each drug concentration was tested in quadruplicate wells. Single point tests of compounds at 50 μM were assayed as described for IC50 determinations, except that the data represent the level of inhibition without correction for basal expression. (Basal adhesion molecule expression was 10-20% of the total induced expression). Table 1 summarizes the ability of various compounds of this invention to inhibit VCAM-1 using human aortic smooth muscle cells (HASMC). In these experiments, the cells were coincubated with interleukin-4 and the compounds listed about 20 hr before assaying cell surface VCAM-1 levels. Each column represents a separate experiment.

[2] = system: ICAM-1; assay: Cell surface ELISA for ICAM-1 in human umbilical vein endothelial cells (HUVEC), TNF-alpha induced; type: cell-based; conditions: 50 μM, average of two runs, numbers in parentheses represent negative values
Description: as §1, §2, §3
(§4) In these experiments, the cells were coincubated with tumor necrosis factor-alpha along with the indicated compounds about 20 to 24 hr before assaying cell surface adhesion molecule expression.

[3] = system: VCAM-1; assay: Cell surface ELISA for VCAM-1 in human umbilical vein endothelial cells (HUVEC), TNF-alpha induced; type: cell-based; conditions: 50 μM, average of three runs
Description: as §1, §2, §3, §4

[4] = system: oxidation of serum lipids; assay: TBARS assay, serum of cholesterol-fed rabbits; type: in vivo, female New Zealand White rabbits; conditions: Oryctolagus cuniculus, po, 168 h; rabbit serum, diet 0.4%, 7 days; read-out: TBARS, percent of control
Description: (§5) Five independent experiments were performed in the following manner. […] Female New Zealand White rabbits (Hazelton, ~2.0-2.3 kg) were fed 0.2% cholesterol enriched rabbit chow (Purina #5322) with or without 0.4% MDL compound (except, MDL 108,804 at 0.26% and MDL 103,491 repeated at 0.6%). The MDL compounds were solubilized in 100% ethanol. MDL 108,208 was not soluble in 100% ethanol, but it was soluble in diethyl ether:ethanol (3:2 by volume). The chow was sprayed with the MDL mixtures and allowed to dry overnight in a chemical fume hood. Control chow was sprayed with ethanol. Rabbits were fed 100 grams food per day for 7 days (0.6% MDL 103,491 were fed for 14 days); water was available ad libitum. On day 7, rabbits (fasted overnight) were bled (~2 mL) from marginal ear vein; 0.6% MDL 103,491 treated rabbits were tested on day 14. They were euthanized by carbon dioxide overdose. The total body and liver weights were recorded in grams. Food consumption was recorded as grams.cndot.day^-1 .cndot.rabbit^-1. Aliquots of fresh serum were used for clinical chemistries, lipoprotein cholesterol determination, thiobarbituric acid reactive substances (TBARS) and compound and metabolite concentrations in serum. Livers (~5 gram aliquots) were frozen at -20° C. for compound and metabolite concentration determination at a later time.
TBARS are a qualitative indication of the oxidation of lipids in a sample. In this assay the oxidation of serum lipids is initiated with CuSO4, resulting in the formation of aldehydes, such as malondialdehyde (MDA). Upon incubation with thiobarbituric acid, the absorbance of the aldehydes can be detected at 530-540 nm. TBARS values which are lower than control serum values indicate the relative ability of a compound to inhibit the oxidation. TBARS were measured as follows: 50 μL of serum were mixed with 50 μL of 0.9% saline and 400 μL of a 5 mM CuSO4 solution and incubated at 37° C. for 5 hr. The reactions were stopped by addition of 1.0 mL of 20% trichloroacetic acid. Then 1.0 mL of 0.67% thiobarbituric acid in 0.05N sodium hydroxide was added, mixed, and the samples incubated for 30 min at 90° C. Samples were centrifuged briefly to pellet undissolved material, and the supernatants were transferred to a 96-well microtiter plate. Absorbances were measured at 540 nm using a Biotek model EL311 microplate reader. The nmoles of MDA produced were calculated from a standard curve of 0 to 10 nmoles of MDA prepared from malonaldehyde bis(dimethylacetal). Serum samples from treated rabbits were compared to serum samples from control rabbits that received no MDL compound.

[5] = HPLC quantitation of compound and metabolite concentration in rabbit serum and liver; type: in vivo, female New Zealand White rabbits; conditions: diet 0.4%, 7 days
Description: as §5
Serum and liver concentrations of parent compounds and the metabolites, bisphenol and diphenoquinone, were determined by reverse phase HPLC using a Waters 990 Powerline system. Livers (1 gram) were homogenized with 5.0 mL PBS, pH 7.4, using a Polytron tissue homogenizer at setting 5 for 20-30 seconds. Serum or liver homogenates were extracted as follows: 100 μL of either serum or homogenate were added to 2.0 mL diethyl ether:ethanol (3:1) while vortexing the tube. The sample tubes were capped and centrifuged for 10 min at 5° C. at 3500 rpm in a Beckman GPKR centrifuge with a GH 3.7 rotor. The supernatants were transferred to clean tubes and dried under N2. Samples were reconstituted with 200 μL of acetonitrile:hexane:0.1M ammonium acetate (90:6.5:3.5, by vol.). Then, 100 μL were injected onto a Waters Deltapak C18-300 Å column, and eluted with an 83% acetonitrile:17% water mobile phase at a flow rate of 1.5 mL/min. Absrobances at the wavelengths of 240, 254, and 420 nm were recorded. Compound concentrations were calculated from known quantities of authentic parent compounds after correction for recovery; the range of recovery from spiked samples was 40 to 100%. The lowest detectable limit for this class of compounds was ~0.5 μg/mL. Concentrations were calculated as μg/mL of serum and μg/g of liver.

[6] = system: serum cholesterol, LDL, HDL, triglycerides; assay: Serum lipids and lipoprotein cholesterol in cholesterol-fed female New Zealand White rabbits; type: in vivo; conditions: Oryctolagus cuniculus, po, 168 h, rabbit serum, diet 0.4%, 7 days
Description: as §5
Blood was allowed to clot at room temperature for 30 minutes. Serum was obtained after centrifugation for 10 min at 5° C. at 3000 rpm in a Beckman GPKR centrifuge with a GH rotor. Fresh serum was analyzed by a COBAS MIRA autoanalyzer (Roche Diagnostics) using Roche diagnostic reagents for total cholesterol (CHOL, kit #44334) and triglyceride (TG, kit #44120). Cholesterol and triglycerides were calculated as mg/dL.
Lipoprotein fractions (very low density lipoprotein, VLDL, low density lipoprotein, LDL and high density lipoprotein, HDL) were separated on a Sepharose 6HR column (1×30 cm, Pharmacia) attached to a Waters Powerline HPLC system. Fifty μL of serum were injected onto the column and eluted with phosphate buffered saline, pH 7.4, at a flow rate of 0.5 mL/min. Cholesterol reagent (Roche Diagnostics, kit #44334, diluted with 20 mL water and then with 20 mL of 0.9% saline) was added at 0.2 mL/min to the post column eluant and incubated in a knitted PFTE Kratos reaction coil (Applied Biosystems) at 37° C. for 5 min. Absorbance was measured at 500 nm. The lipoprotein subfractions were quantitated as follows: [formula]

[7] = Food consumption, body and liver weight in cholesterol-fed rabbits; type: in vivo, female New Zealand White rabbits; conditions: diet 0.4%, 7 days
Description: as §5

Compound | VCAM-1 (Avg.) % inh. [1] [%] | HSMC-1 % inh. of VCAM-1 [1] [%] | HSMC-2 % inh. of VCAM-1 [1] [%] | HSMC-3 % inh. of VCAM-1 [1] [%] | ICAM-1 % inh. [2] [%] | VCAM-1 % inh. [3] [%] | response vs control in vivo at 0.4 % [4] [%] | Liver Parent = parent compound concentration ([5]; rabbit liver) [µg/g] | Serum Parent = parent compound concentration ([5]; rabbit serum) [µg/mL] | response vs control in vivo at 0.4 % ([6]; read-out: HDL cholesterol, percent of control) [%] | response vs control in vivo at 0.4 % ([6]; read-out: LDL cholesterol, percent of control) [%] | response vs control in vivo at 0.4 % ([6]; read-out: TRIG (triglycerides), percent of control) [%] | response vs control in vivo at 0.4 % ([6]; read-out: chol tot. (total cholesterol), percent of control) [%] | food (grams eaten per day per rabbit), percent of control [7] [%] | body wt., percent of control ([7]; rabbit) [%] | lw/bw (liver weight/body weight), percent of control ([7]; rabbit) [%]
CC(C)(C)c1cc(SC[Si](C)(C)C)cc(C(C)(C)C)c1OC(=O)CCC(=O)O [MDL 104,863, 2,6-Di-t-butyl-4-[(trimethylsilyl)methylthio]phenol succinic acid ester] | 54.8 | 56.5 | 52.0 | 56.0 | 53 | 44.3 |  |  |  |  |  |  |  |  |  | 
CC(C)(C)c1cc(OC[Si](C)(c2ccccc2)c2ccccc2)ccc1O [MDL 107,917, 2-t-butyl-4-[(diphenylmethylsilyl)methyloxy]phenol] |  |  |  |  |  |  | 68 | 0 | 0 | 86 | 165 | 129 | 151 | 100 | 99 | 106
Cc1cc(O)c(C)c(C)c1OC[Si](C)(C)c1ccccc1 [MDL 103,653, 2,3,5-Trimethyl-4-[(dimethylphenylsilyl)methyloxy]phenol] | 56.4 | 63.1 | 54.0 | 52.0 | 78.5 | 37.7 |  |  |  |  |  |  |  |  |  | 
